Values quoted from earlier work as cited in patent US20160095816A2, “ARTICLE AND METHODS FOR ORAL SELF-ADMINISTRATION OF NICOTINE” (priority 2012, published 2016).

Assays:
[1] = metabolized in the liver
[2] = cigarette smoking, inhaled; "may be as high as"

For `CN1CCCC1c1cccnc1` (centres unmarked) [Nicotine, 3-(1-Methyl-2-pyrrolidinyl) pyridine], the “half life in the bloodstream” value [1] is given as 1 to 2 h and the “peak of nicotine delivered into the bloodstream through smoking” value [2] is given as 30-40 nanograms per milliliter of blood.
